In brackets after ≈: the same amount, converted by molar mass. Activity calls are given as the source filed them. The rule behind the calls is not given here.
Experiments:
[1] = Inhibition of terbium-labelled Mcl-1 (unknown origin)/Bim BH3 peptide (H3N-(C/Cy5Mal)-WIAQELRRIGDEFN-OH) (unknown origin) interaction assessed as displacement of Cy5-labeled Bim BH3 peptide by TR-HTRF assay
MOLP-8 = assay: Induction apoptosis in human MOLP8 cells assessed as cell killing measured after 2 hrs by Caspase-Glo 3/7 Assay; format: functional, cell-based; conditions: MOLP-8, 2 h
[2] = Thermodynamic (equilibrium) solubility of the compound measured after 3 days agitation in pH 2 buffer by LC-MS/MS analysis; format: physicochemical; conditions: time 3 day, read-out: Therm_solubility
[3] = Thermodynamic (equilibrium) solubility of the compound measured after 3 days agitation in pH 7 buffer by LC-MS/MS analysis; format: physicochemical; conditions: time 3 day, read-out: Therm_solubility
[4] = Lipophilicity, CHI logD of compound at pH 7.4 by UPLC-TOF analysis; format: physicochemical; conditions: buffer
[5] = Intrinsic clearance in human liver microsomes measured upto 60 mins by LC-MS/MS analysis; format: ADME, Microsome; conditions: read-out: CLH
[6] = Intrinsic clearance in mouse liver microsomes measured upto 60 mins by LC-MS/MS analysis; format: ADME, Microsome; conditions: read-out: CLH
[7] = Cardiotoxicity risk in human iPSC-CM assessed as calcium transients at 1 uM by CTCM assay; format: toxicity, cell-based
[8] = Cardiotoxicity risk in human iPSC-CM assessed as calcium transients at 3 uM by CTCM assay; format: toxicity, cell-based
[9] = Hepatic intrinsic clearance in human hepatocytes measured per 10^6 cells at 1 uM measured upto 120 mins by LC-MS/MS analysis; format: ADME, cell-based, Hepatocyte; conditions: read-out: CLH
[10] = Hepatic intrinsic clearance in Swiss CD-1 mouse hepatocytes measured per 10^6 cells at 1 uM measured upto 120 mins by LC-MS/MS analysis; format: ADME, cell-based, Hepatocyte; conditions: read-out: CLH
[11] = Metabolic stability in human hepatocytes assessed as half life at 1 uM measured by LC-MS/MS analysis; format: ADME, cell-based, Hepatocyte
[12] = Metabolic stability in Swiss CD-1 mouse hepatocytes assessed as half life at 1 uM measured by LC-MS/MS analysis; format: ADME, cell-based, Hepatocyte
Cytochrome P450 2C8 = biological target: T1, Cytochrome P450 2C8 (Homo sapiens, UniProt P10632); assay: Inhibition of human CYP2C8 assessed as fluorescent metabolites by CYP450 inhibition assay; format: ADME
T1 sequence (P10632 whole entry): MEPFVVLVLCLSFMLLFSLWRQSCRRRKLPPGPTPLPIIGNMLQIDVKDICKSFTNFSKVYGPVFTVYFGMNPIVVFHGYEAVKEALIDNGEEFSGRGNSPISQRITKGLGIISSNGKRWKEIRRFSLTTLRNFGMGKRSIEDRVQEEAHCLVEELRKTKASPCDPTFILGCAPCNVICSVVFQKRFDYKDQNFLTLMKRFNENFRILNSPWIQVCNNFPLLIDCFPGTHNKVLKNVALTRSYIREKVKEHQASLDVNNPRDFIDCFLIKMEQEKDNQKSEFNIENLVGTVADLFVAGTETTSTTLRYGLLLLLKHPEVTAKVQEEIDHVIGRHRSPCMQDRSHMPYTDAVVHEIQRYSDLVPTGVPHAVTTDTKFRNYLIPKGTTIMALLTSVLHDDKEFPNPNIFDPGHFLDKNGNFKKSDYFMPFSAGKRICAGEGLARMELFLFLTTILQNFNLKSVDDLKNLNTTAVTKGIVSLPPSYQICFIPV

CYP3A4 [13] = biological target: T2, CYP3A4 (Homo sapiens, UniProt P08684); assay: Induction of human CYP3A4 assessed as fold change at 10 uM by CYP450 induction assay; format: ADME; conditions: read-out: FC
T2 sequence (P08684 whole entry): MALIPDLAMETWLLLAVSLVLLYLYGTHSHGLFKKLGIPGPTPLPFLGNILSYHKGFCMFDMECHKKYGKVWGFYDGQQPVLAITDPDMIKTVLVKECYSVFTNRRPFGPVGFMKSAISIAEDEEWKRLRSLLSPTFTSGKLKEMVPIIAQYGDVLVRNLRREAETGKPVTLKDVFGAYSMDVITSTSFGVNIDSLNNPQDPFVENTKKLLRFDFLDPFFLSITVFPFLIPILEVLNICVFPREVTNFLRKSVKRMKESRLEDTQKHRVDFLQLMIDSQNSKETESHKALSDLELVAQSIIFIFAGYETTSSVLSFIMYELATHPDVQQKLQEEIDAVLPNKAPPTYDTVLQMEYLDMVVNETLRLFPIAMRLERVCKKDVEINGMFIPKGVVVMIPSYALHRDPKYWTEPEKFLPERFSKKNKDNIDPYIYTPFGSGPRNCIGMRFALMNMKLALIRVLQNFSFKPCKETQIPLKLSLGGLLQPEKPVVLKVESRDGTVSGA

CYP1A2 = biological target: T3, CYP1A2 (Homo sapiens, UniProt P05177); assay: Induction of human CYP1A2 assessed as fold change at 1 uM by CYP450 induction assay; format: ADME; conditions: read-out: FC
T3 sequence (P05177 whole entry): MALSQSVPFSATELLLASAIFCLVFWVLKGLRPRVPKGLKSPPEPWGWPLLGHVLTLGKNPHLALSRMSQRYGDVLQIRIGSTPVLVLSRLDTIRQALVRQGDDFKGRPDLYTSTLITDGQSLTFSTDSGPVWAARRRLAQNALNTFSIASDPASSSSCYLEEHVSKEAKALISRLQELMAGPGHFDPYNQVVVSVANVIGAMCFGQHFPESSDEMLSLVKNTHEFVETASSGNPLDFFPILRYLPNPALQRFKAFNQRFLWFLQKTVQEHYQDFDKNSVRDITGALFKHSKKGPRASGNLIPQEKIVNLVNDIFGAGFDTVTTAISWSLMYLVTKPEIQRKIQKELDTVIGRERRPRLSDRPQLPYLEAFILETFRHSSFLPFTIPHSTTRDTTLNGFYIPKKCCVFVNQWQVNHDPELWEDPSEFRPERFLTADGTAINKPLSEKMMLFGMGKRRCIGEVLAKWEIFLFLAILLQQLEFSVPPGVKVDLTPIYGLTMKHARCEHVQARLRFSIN

CYP3A4 [14] = biological target: T2, CYP3A4; assay: Induction of human CYP3A4 assessed as fold change at 1 uM by CYP450 induction assay; format: ADME; conditions: read-out: FC
[15] = Fraction unbound in human plasma at 5 uM incubated for 4.5 hrs by rapid equilibrium dialysis; format: ADME, cell-free
[16] = Fraction unbound in mouse plasma at 5 uM incubated for 4.5 hrs by rapid equilibrium dialysis; format: ADME, cell-free
[17] = Cardiotoxicity risk in human iPSC-CM assessed as calcium transients at 0.1 uM by CTCM assay; format: toxicity, cell-based
[18] = Cardiotoxicity risk in human iPSC-CM assessed as calcium transients at 0.3 uM by CTCM assay; format: toxicity, cell-based
Cytochrome P450 1A2 = biological target: T4, Cytochrome P450 1A2 (Homo sapiens, UniProt P05177); assay: Inhibition of human CYP1A2 assessed as fluorescent metabolites by CYP450 inhibition assay; format: ADME
T4 sequence (P05177 whole entry): T3 sequence (P05177 whole entry)

Cytochrome P450 2C19 = Cytochrome P450 2C19 (Homo sapiens, UniProt P33261); assay: Inhibition of human CYP2C19 assessed as fluorescent metabolites by CYP450 inhibition assay; format: ADME
Sequence of Cytochrome P450 2C19 (P33261 whole entry): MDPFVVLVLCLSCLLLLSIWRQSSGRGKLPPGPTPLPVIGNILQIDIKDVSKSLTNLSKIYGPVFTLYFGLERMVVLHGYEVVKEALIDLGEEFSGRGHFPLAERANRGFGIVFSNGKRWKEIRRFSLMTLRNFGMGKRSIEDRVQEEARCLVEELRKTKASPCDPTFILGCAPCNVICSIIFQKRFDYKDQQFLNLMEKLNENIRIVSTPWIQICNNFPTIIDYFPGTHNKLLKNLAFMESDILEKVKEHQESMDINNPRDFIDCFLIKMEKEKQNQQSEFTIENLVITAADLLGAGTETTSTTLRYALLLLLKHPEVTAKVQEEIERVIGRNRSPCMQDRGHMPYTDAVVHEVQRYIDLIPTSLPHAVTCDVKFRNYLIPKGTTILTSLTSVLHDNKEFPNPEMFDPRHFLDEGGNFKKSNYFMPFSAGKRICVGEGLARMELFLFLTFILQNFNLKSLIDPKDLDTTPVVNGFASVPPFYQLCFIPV

Cytochrome P450 2C9 = Cytochrome P450 2C9 (Homo sapiens, UniProt P11712); assay: Inhibition of human CYP2C9 assessed as fluorescent metabolites by CYP450 inhibition assay; format: ADME
Sequence of Cytochrome P450 2C9 (P11712 whole entry): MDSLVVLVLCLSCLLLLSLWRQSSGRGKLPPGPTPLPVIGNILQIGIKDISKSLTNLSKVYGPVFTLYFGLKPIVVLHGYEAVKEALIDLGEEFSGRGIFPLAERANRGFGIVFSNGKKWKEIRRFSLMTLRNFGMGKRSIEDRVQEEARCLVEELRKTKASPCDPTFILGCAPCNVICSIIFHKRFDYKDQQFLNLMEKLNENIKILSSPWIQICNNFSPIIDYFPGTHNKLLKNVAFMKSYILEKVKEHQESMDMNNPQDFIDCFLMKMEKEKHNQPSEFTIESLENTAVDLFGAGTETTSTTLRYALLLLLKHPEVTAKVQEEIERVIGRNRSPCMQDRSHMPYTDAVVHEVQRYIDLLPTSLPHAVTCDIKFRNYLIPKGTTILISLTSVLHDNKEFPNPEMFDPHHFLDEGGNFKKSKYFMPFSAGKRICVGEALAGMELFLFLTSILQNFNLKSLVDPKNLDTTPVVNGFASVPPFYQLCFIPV

Cytochrome P450 2D6 = Cytochrome P450 2D6 (Homo sapiens, UniProt P10635); assay: Inhibition of human CYP2D6 assessed as fluorescent metabolites by CYP450 inhibition assay; format: ADME
Sequence of Cytochrome P450 2D6 (P10635 whole entry): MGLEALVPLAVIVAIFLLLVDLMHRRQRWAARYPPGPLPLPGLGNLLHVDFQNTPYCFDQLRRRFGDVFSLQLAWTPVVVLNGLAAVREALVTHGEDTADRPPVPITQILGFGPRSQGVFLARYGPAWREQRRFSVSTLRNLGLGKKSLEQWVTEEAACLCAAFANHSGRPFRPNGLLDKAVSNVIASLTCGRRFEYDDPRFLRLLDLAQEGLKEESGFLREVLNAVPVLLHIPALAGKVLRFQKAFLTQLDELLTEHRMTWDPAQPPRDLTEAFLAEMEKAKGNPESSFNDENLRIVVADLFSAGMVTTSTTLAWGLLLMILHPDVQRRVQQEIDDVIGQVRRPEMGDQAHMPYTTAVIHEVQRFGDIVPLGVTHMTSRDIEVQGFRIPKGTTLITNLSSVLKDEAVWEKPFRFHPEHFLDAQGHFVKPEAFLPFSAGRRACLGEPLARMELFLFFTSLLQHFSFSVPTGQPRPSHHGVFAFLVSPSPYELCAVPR

[19] = Half life in CD1 mouse at 1 mg/kg, iv administered as bolus dose; format: ADME, organism-based; conditions: in vivo
[20] = Initial plasma concentration in CD1 mouse at 1 mg/kg, iv administered as bolus dose; format: ADME, organism-based
[21] = Volume of distribution at steady state in CD1 mouse at 1 mg/kg, iv administered as bolus dose; format: ADME, organism-based; conditions: in vivo, read-out: Vdss
[22] = Clearance in CD1 mouse at 1 mg/kg, iv administered as bolus dose; format: ADME, organism-based; conditions: in vivo
[23] = Tmax in CD1 mouse at 5 mg/kg, po administered as bolus dose; format: ADME, organism-based; conditions: in vivo
[24] = Cmax in CD1 mouse at 5 mg/kg, po administered as bolus dose; format: ADME, organism-based; set-up: dose 5 mg/kg, route po; conditions: in vivo
[25] = AUClast in CD1 mouse at 5 mg/kg, po administered as bolus dose; format: ADME, organism-based; set-up: dose 5 mg/kg, route po; conditions: in vivo
[26] = Oral bioavailability in CD1 mouse at 5 mg/kg administered as bolus dose; format: ADME, organism-based; conditions: in vivo
[27] = Fraction absorbed in CD1 mouse at 5 mg/kg, po administered as bolus dose; format: ADME, organism-based; conditions: in vivo, read-out: Fabs
MOLM-13 [28] = assay: In vivo inhibition of Mcl-1 in human MOLM-13 cells sc implanted in NSG mouse assessed as disruption of Mcl-1/Bak complex in tumor at 10 mg/kg, po; format: functional, organism-based
MOLM-13 [29] = assay: In vivo inhibition of Mcl-1 in human MOLM-13 cells sc implanted in NSG mouse assessed as disruption of Mcl-1/Bim complex in tumor at 10 mg/kg, po; format: functional, organism-based
[30] = Toxicity in NSG mouse xenografted with human MOLM-13 cells at 10 mg/kg, po; format: organism-based; conditions: in vivo

- Ki [1]: 0.011 nM
- solubility thermodynamic at 72 h [2]: < 0.1 µM
- solubility thermodynamic at 72 h [3]: 520 µM (≈ 401 µg/mL)
- chromatographic logD [4]: 3
- microsomal CLint [5]: < 7.7 µL/min/mg
- microsomal CLint [6]: 15 µL/min/mg
- hepatocyte CLint at 1 µM [9]: 1.99 µL/min/1e6 cells
- hepatocyte CLint at 1 µM [10]: < 1.24 µL/min/1e6 cells
- t1/2 [11]: 5.8 h
- half-life at 1 µM [12]: > 9.33 h
- IC50 (Cytochrome P450 2C8): 5010 nM
- fold induction at 10 µM (CYP3A4 [13]): 4.4
- fold induction at 1 µM (CYP1A2): 0.95
- fold induction at 1 µM (CYP3A4 [14]): 1.3
- Fu [15]: 0.05%
- Fu [16]: 0.02%
- inhibition (INH) (Cytochrome P450 1A2): Not Active
- inhibition (INH) (Cytochrome P450 2C19): Not Active
- inhibition (INH) (Cytochrome P450 2C9): Not Active
- inhibition (INH) (Cytochrome P450 2D6): Not Active
- half-life [19]: 1.81 h
- C0 [20]: 574 ng/mL
- Vd [21]: 3.01 L/kg
- clearance [22]: 25 mL/min/kg
- Tmax [23]: 2.33 h
- Cmax [24]: 578 ng/mL
- AUC(0-t) [25]: 2520 ng·h/mL
- bioavailability [26]: 78%
- Fa [27]: 99%
Structure (SMILES): COc1nn(C)cc1C(=O)N[S@@]1(=O)=NC(=O)c2ccc3c(c2)N(C[C@@H]2CCO[C@H]2[C@@H](OC)/C(F)=C/C[C@H](C)C1)C[C@@]1(CCCc2cc(Cl)ccc21)CO3
- AC50 (MOLP-8): 44 nM
- Activity [7]: Non-Toxic
- Activity [8]: Non-Toxic
- Activity [17]: Non-Toxic
- Activity [18]: Non-Toxic
- inhibition (MOLM-13 [28]): Active
- inhibition (MOLM-13 [29]): Active
- Activity [30]: Non-Toxic

— ChEMBL document CHEMBL5380869, “Discovery of an Oral, Beyond-Rule-of-Five Mcl-1 Protein-Protein Interaction Modulator with the Potential of Treating Hematological Malignancies” (J Med Chem, 2023)
